Assay results as given in patent publication US20050058695A1, “Norethindrone sustained release formulations and methods associated therewith” (Watson Pharmaccuticals, Inc., priority 2002, published 2005).

Assays:
[1] = in situ conversion of norethindrone acetate to norethindrone in the transdermal formulation; format: physicochemical
[2] = cited from earlier work

C#C[C@]1(OC(C)=O)CC[C@H]2[C@@H]3CCC4=CC(=O)CC[C@@H]4[C@H]3CC[C@@]21C [NEA, norethindrone acetate]
conversion to norethindrone in situ in the transdermal formulation [1]: does not convert to norethindrone in situ | time at which maximum skin flux for NEA is attained ([2]; FIG. 3 of U.S. Pat. No. 5,980,932): only after the second day of administration | time at which maximum NEA skin flux is obtained following administration ([2]; FIGS. 1 and 2 of U.S. Patent Application Publication No. 2003/0152615, in h): ~48
